From patent US11833144B2, “Treating autoimmune disease” (Mayo Foundation for Medical Education and Research, priority 2020, dated 2023) come the findings set out here.

Experiment [1] concerns murine B cells. Description: Murine B cell proliferation (CellTrace Violet, cell number) and class switch to IgG1 in vitro. The experiment is classed as cell-based, mouse. The following applies: for proliferation of mouse B cells (CTV dilution) / B cell proliferation, exogenous fatty acid alone / IgG1 class switch, exogenous fatty acid alone: LPS/IL-4 activated; for proliferation of mouse B cells (CTV dilution): SCD inhibitor alone; for rescue of proliferation and IgG1 class switch upon SSI-4 treatment: SSI-4 with exogenous fatty acid; for B cell proliferation, exogenous fatty acid alone / IgG1 class switch, exogenous fatty acid alone: fatty acid-BSA conjugate, no inhibitor. The method, then: Mouse B cells were isolated from pooled single cell suspensions of spleen and peripheral lymph nodes using CD19 Microbeads (Miltenyi) or Mouse B cell Isolation Kit (Stemcell Technologies). B cells were stimulated with LPS (10 μg/mL; Sigma-Aldrich) and recombinant IL-4 cytokine (10 ng/mL; Tonbo Bioscience) with or without SCD inhibitor SSI-4, and proliferation was measured by dilution of CellTrace Violet proliferation dye (Thermo Fisher Scientific). B cells were also stimulated with anti-IgM (10 μg/mL; Jackson ImmunoResearch), anti-CD40 (10 μg/mL; BioXcell) and IL-4 (10 ng/mL; Tonbo Bioscience), or TLR ligand CpG (2.5 μM; IDT), recombinant IL-4 and IL-5 (10 ng/mL; Tonbo Bioscience) cytokines. To test the function of monounsaturated and saturated fatty acids, B cells were activated in presence of exogenous fatty acid-BSA conjugate. Palmitoleic acid (NU-CHEK PREP, INC), palmitic acid (NU-CHEK PREP, INC), stearic acid (NU-CHEK PREP, INC) were conjugated with fatty acid free BSA (Sigma-Aldrich) as described elsewhere (Wang et al., Immunity 35:871-882 (2011)). Human B cells were activated with CpG OND2006 (2.5 μM; IDT), recombinant human cytokine IL-10 ([…]; Peprotech), IL-15 (10 ng/mL; Peprotech), IL-4 (10 ng/mL; Biolegend), IL-2 (10 unit/mL) and anti-human CD40 (1 μg/mL; BioXcell). Human B cell proliferation was measured by ^3[H]-thymidine incorporation (1 μCi/mL) (American Radiolabeled Chemicals). For analysis of surface markers, cells were stained in PBS containing 1% (w/v) bovine serum albumin on ice for 30 minutes, with anti-IgG1 (RMG1-1, Biolegend), anti-CD19 (ID3, Biolegend) anti-B220 (RA3-6B2, Biolegend), anti-CD4 (GK1.5, Biolegend), anti-CD8 (53-6.7, Biolegend), anti-CD25 (PC16, Biolegend), anti-GL7 (GL-7, Biolegend), anti-CD95 (Jo2, BD Biosciences), anti-CD138 (281-2, Biolegend), anti-IgD (11-26c.2a, Biolegend), anti-PD-1 (J43, ThermoFisher), anti-IgM (II/41, ThermoFisher). Antigen specific GC response was detected with tetramer NP-phycoerythrin conjugated with PE (Biosearch Technologies). CXCR5 was stained with biotinylated anti-CXCR5 (2G8) followed by staining with streptavidin-conjugated PE (both from BD Biosciences). Cell viability was assessed using the Fixable Dye Ghost 510 (Tonbo Bioscience) or Annexin V cell apoptosis kit with 7-AAD (ThermoFisher) following the manufacturer's protocol. Phosflow staining for phospho-S6 (S235/236) was performed using Phosflow Fix/Perm kit (BD Biosciences). Mitochondrial potential was measured by staining with 20 nM TMRM (ThermoFisher) following manufacturer's instructions. Flow cytometry was performed on the LSR II, LSR Fortessa (BD Biosciences) or Attune NxT (ThermoFisher) cytometers, and analysis was performed using FlowJo software (Tree Star).

Experiment [2] concerns activated human B cells. Description: Seahorse OCR / ECAR in activated human B cells. The experiment is classed as cell-based. To be noted: exogenous fatty acid, 72 hours. The method, then: (§1) The bioenergetic activities of the OCR and ECAR were measured using a Seahorse XFe96 Extracellular Flux Analyzed following established protocols (Agilent). Briefly, B cells were seeded at 200,000 cells/well on Cell-Tak (Corning) coated XFe96 plate with fresh XF media (Seahorse XF RPMI medium containing 10 mM glucose, 2 mM L-glutamine, and 1 mM sodium pyruvate, PH 7.4; all reagents from Agilent). OCR was measured in the presence of Oligomycin (1.5 μM; Sigma-Aldrich), FCCP (1.5 μM; Sigma-Aldrich), and Rotenone (1 μM; Sigma-Aldrich)/Antimycin A (1 μM; Sigma-Aldrich) in Mito Stress assay. For ECAR measurement, B cells were seeded in XFe96 plate with fresh Seahorse XF RPMI medium with 2 mM L-glutamine (PH 7.4), and treated with glucose (10 mM; Agilent), Oligomycin (1.5 and 2-DG (50 mM; Sigma-Aldrich) orderly in Glycolysis Stress assay.

Experiment [3] relates to activated murine B cells. The experiment in a line: Seahorse OCR / ECAR in activated murine B cells. The experiment is classed as cell-based, mouse. To be noted: exogenous fatty acid, 48 h. The method, then:
as §1

`Cn1cnc(N)c2ncnc1-2` [3-MA, 3-methyladenine, reference compound]: the “rescue of B cell proliferation and class switch to IgG1 in the presence of SSI-4” value in experiment [1] (3-MA 1 mM, wortmannin 1 μM) is “successfully rescued”.

`CNC(=O)c1cccc(NC(=O)N2CCC(Oc3ccccc3Cl)CC2)c1` [A939572, reference compound]: the “proliferation of mouse B cells (CTV dilution)” value in experiment [1] is given as “capable of inhibiting B cell proliferation”.

Regarding `Cc1nnc(-c2ccc(N3CCC(Oc4ccccc4C(F)(F)F)CC3)nn2)s1` [MF438, reference compound], in experiment [1], the “proliferation of mouse B cells (CTV dilution)” value is “capable of inhibiting B cell proliferation”.

Take `CCCCCCCCCCCCCCCC(=O)O` [PA, palmitic acid]: in experiment [1] (LPS/IL-4), the “rescue of proliferation and IgG1 class switch upon SSI-4 treatment” value is on record as “no rescue effects”. Besides, in experiment [1], the “B cell proliferation, exogenous fatty acid alone” value is “unable to promote” and the “IgG1 class switch, exogenous fatty acid alone” value was “unable to promote”.

With `CCCCCC/C=C\CCCCCCCC(=O)O` [PO, palmitoleic acid], in experiment [2], the “respiration (OCR) in activated human B cells” value is on record as “did enhance OCR”. The “OCR upon LPS/IL-4 stimulation in mouse B cells” value in experiment [3] is recorded as “did enhance OCR”. Further, in experiment [3] (CpG/IL-4/IL-5 (PO: CpG and anti-IgM/anti-CD40) stimulation), the “B cell respiration (OCR)” value was “did not promote respiration”. Further, the “rescue of proliferation and IgG1 class switch in SCD1/2 deficient B cells” value in experiment [1] (B cells from Scd1 and Scd2 deficient mice, LPS/IL-4) is “partial rescue effect”. Also, in experiment [1] (LPS/IL-4), the “rescue of proliferation and IgG1 class switch upon SSI-4 treatment” value was “substantial, but incomplete, rescue effects”. In addition, in experiment [1], the “IgG1 class switch, exogenous fatty acid alone” value is given as “did not improve class switch”.

Regarding `CCCCCCCCCCCCCCCCCC(=O)O` [SA, stearic acid], the “rescue of proliferation and IgG1 class switch upon SSI-4 treatment” value in experiment [1] (LPS/IL-4) is recorded as “no rescue effects”. For the same compound, in experiment [1], the “B cell proliferation, exogenous fatty acid alone” value was “unable to promote” and the “IgG1 class switch, exogenous fatty acid alone” value was “unable to promote”.

`CCOC(=O)[C@@]1(CCCCCCOc2ccc(Cl)cc2)CO1` [etomoxir, reference compound]: the “effect of OA treatment on class switch in presence of etomoxir” value in experiment [1] (OA plus etomoxir 40 μM, 72 hours) is given as “negated the effects of OA treatment”. For the same compound, in experiment [1] (etomoxir 40 μM, LPS/IL-4, 72 hours), the “B cell class switch to IgG1” value is listed as “reduced B cell class switch”.
